Patent publication US20190046490A1, “METHODS OF TREATING LACTOSE INTOLERANCE” (Nogra Pharma Limited, priority 2016, published 2019)
“Also recorded” adds a separate entry of the source. Each block holds one molecule with its values, some of them ahead of it.

Experiments:
LCT gene = assay: Transcriptome microarray analysis of LCT mRNA expression in Caco-2 cells treated with PPARγ modulators; assay type: cell-based, human; details: vs unstimulated cells
Method: (§1) Caco-2 (colonic adenocarcinoma) cells were grown in Dulbecco's Modified Eagle's Medium (DMEM, Invitrogen, Life Technologies, Cergy-Pontoise, France) supplemented with 20% foetal calf serum (FCS, Dutscher, Brumath, France), 1% penicillin-streptomycin (5 ml/l) (Invitrogen, Life technologies) and 1% non-essential amino acids (5 ml/l) (Invitrogen, Life technologies). All cell lines were cultured as confluent monolayers at 37° C. in a controlled, 5% CO2 atmosphere.
(§2) For cell stimulations, 1×10^6 cells per well were seeded in 6-well plates. Cells were serum deprived for 16 hours prior to stimulation in order to synchronize the cells. Cells were treated with GED (Nogra Pharma Ltd, Ireland), pioglitazone (1 μM, Sigma-Aldrich) or CLA (various concentrations, Sigma-Aldrich). When necessary, the DMSO vehicle (Sigma-Aldrich) was used as control. After 24 hours of stimulation, cells were washed three times with sterile PBS before RNA extraction. Cell stimulations were performed in 4 replicates for microarray analysis and in 3, 4 or 6 replicates for other stimulations.
(§3) Cells were lysed with lysis buffer (RA1, Macherey-Nagel) containing 1% β-mercaptoethanol. Total RNA was extracted with a Nucleospin RNA kit (Macherey-Nagel, Hoerdt, France). After RNAse inactivation, total RNA was cleaned of genomic DNA traces by DNAse treatment and eluted in RNAse-free, DEPC-water. The purity of the RNA was evaluated by UV spectroscopy on a Nanodrop system (Nyxor Biotech, Paris, France) from 220 to 350 nm. Before microarray experiments, RNAs were also profiled on an Agilent 2100 bioanalyzer. One μg of total RNA with a minimum concentration of 50 ng/μl was used in the microarray and qRT-PCR analysis.
Dual-colour gene expression microarrays were used to compare the cRNA from the samples. 44,000 genes were screened. The RNAs from the samples were first reverse-transcribed into cDNA (Affinity-Script RT, Agilent), which were then used as the substrate for the synthesis and amplification of cRNA by T7 RNA polymerase in the presence of cyanine 3-CTP for the CTL sample (green fluorescence) and cyanine 5-CTP for the PPAR-γ y modulator sample (red fluorescence). The two-labelled cRNAs were mixed, hybridized on the same array (G4851A Agilent 8×44K) and then scanned (with an Agilent G2505B scanner). Fluorescence was visualized after laser excitation and the relative intensities of the two fluorophores were expressed as a ratio, in order to yield the over- or under-expression status of each gene (using GeneSpring software (Agilent)). This analysis was performed for each PPAR-γ modulator.

LCT mRNA = assay: Quantitative PCR of LCT mRNA expression in Caco-2 cells; assay type: cell-based, human; details: for LCT mRNA expression relative to control (qPCR): 24 hours, normalized to GAPDH
Method: as §1, §2, §3
(§4) Expression of genes of interest was quantified by quantitative PCR (qPCR) of corresponding reverse transcribed mRNA. One μg of total RNA was reverse-transcribed into cDNA using the High Capacity cDNA Archive kit (Applied Biosystems). Amplification was performed using an ABI PRISM 7000 sequence detection system (Applied Biosystem) using Power SYBR® Green PCR master Mix (Applied Biosystem). Primer pairs for each human transcript were chosen with qPrimer depot software (at primerdepot.nci.nih.gov.). Quantification of qPCR signals was performed using ΔCt relative quantification method using GAPDH as a reference gene for human and rat samples and β-Actin for mouse samples. Values were represented in terms of relative quantity of mRNA level variation or fold increase compared to control conditions.

LCT activity = assay: Lactase activity in Caco-2 cells (glucose oxidase method); assay type: cell-based, human
Method: (§5) Lactase activity was evaluated by using a glucose oxidase method (Glucose Assay Kit, Sigma). This lactase assay is based on the measurement of the amount of glucose produced following the action of lactase by incubating samples with a lactose buffer solution (0.056 mol/l lactose in a 0.1 mol/l Na-maleate buffer). For Caco-2 cells, lactase activity was determined directly from the cell monolayer. After extensive washing, the cell monolayer was incubated with lactose buffer for one hour at 37° C. The supernatant was recovered, 50 μl were diluted with 100 μl of glucose oxidase reagent and incubated at 37° C. for 1 hour. The reaction was stopped with 100 μl of H2SO4 and read by spectrophotometry at 450 nm. When lactase activity was determined from intestinal sample, tissue samples were first dounce-homogenized in 0.9% NaCl on crushed ice. These homogenates were then diluted in 0.9% NaCl ( 1/500) and 50 μl of dilution were incubated with lactose buffer and used to determine lactase activity. For each experiment, the background attributed to the remaining glucose in the samples was measured by incubating cells or cell extracts in lactose-free buffer.

[1] = system: LCT in PPARγ knock-down Caco-2 cells; assay: LCT expression and activity in PPARγ knock-down Caco-2 cells (ShPPAR); assay type: cell-based, human; details: ShPPAR vs ShLuc Caco-2 cells, 250-1000 μM
Method: as §4
Lactase activity was evaluated by using a glucose oxidase method (Glucose Assay Kit, Sigma). […] For Caco-2 cells, lactase activity was determined directly from the cell monolayer. […] The reaction was stopped with 100 μl of H2SO4 and read by spectrophotometry at 450 nm. When lactase activity was determined from intestinal sample, tissue samples were first dounce-homogenized in 0.9% NaCl on crushed ice. […] For each experiment, the background attributed to the remaining glucose in the samples was measured by incubating cells or cell extracts in lactose-free buffer. […]

LCT = LCT mRNA and LCT activity in duodenum and jejunum of rats after 5 days oral gavage; assay type: in vivo, Sprague Dawley rats; details: oral gavage 5 days, GED 30 mg/kg/day, CLA 200 mg/kg/day
Method: as §4, §5
(§6) To determine whether CLA induces LCT expression and activity in vivo, Sprague Dawley rats were fed a control diet and administered either carboxymethyl cellulose (CMC; 0.5%), CLA, or GED for 5 days, after which levels of PPARγ mRNA, LCT mRNA, and LCT activity were measured. CLA was administered at 200 mg/kg/day by oral gavage, and GED was administered at 30 mg/kg/day by oral gavage (FIG. 21A).

PPARγ mRNA = PPARγ mRNA in duodenum and jejunum of rats after 5 days oral gavage; assay type: in vivo, Sprague Dawley rats; details: 200 mg/kg/day oral gavage 5 days
Method: as §4, §6

Caco-2 cells = assay: Glucose uptake assay (2-DG6P) in Caco-2 cells; assay type: cell-based, human; details: 1 μM, 24 h
Method: Glucose uptake was evaluated by using the glucose uptake colorimetric assay kit (Sigma-Aldrich) according to the manufacturer's instructions. Briefly, Caco-2 cells were seeded into a 96-well plate at a density of 30,000 cells per well. Cells were serum deprived for 16 hours prior to stimulation in order to synchronize the cells. Cells were treated with GED (1 mM) or pioglitazone (1 μM) for 24 h. Cells were then washed 3 times with PBS and were glucose-starved by incubating with 100 μl of KRPH buffer (Krebs-Ringer-Phosphate-HEPES (KRPH) Buffer—20 mM HEPES, 5 mM KH2PO4, 1 mM MgSO4, 1 mM CaCl2, 136 mM NaCl, and 4.7 mM KCl, pH 7.4) containing 2% BSA for 40 minutes. 10 μl of 2-deoxyglucose (2-DG; 10 mM) was then added and incubation was continued for 20 minutes. 2-DG is taken up by the cells and phosphorylated by hexokinase to 2-DG6P, which cannot be further metabolized and accumulates in cells. Following incubation, cells were washed 3 times with PBS and lysed with 80 μl of the extraction buffer provided. The amount of 2-DG6P (which is directly proportional to glucose uptake by the cells) was determined by a colorimetric detection assay according to the manufacturer's protocol.

SMILES: Nc1ccc(O)c(C(=O)O)c1 [5ASA, 5-aminosalicylic acid]
- Fold Lactase RNA (LCT gene; 30 mM): 8.7 fold
- LCT mRNA expression relative to control (qPCR) (LCT mRNA; 30 mM): Significant increases; also recorded: induction
- LCT activity relative to control cells (LCT activity; Caco-2 cells, 30 mM): not

- LCT activity in Caco-2 cells (LCT activity; concentrations of 100 mM or more): significantly increased
SMILES: CCCCC/C=C\C=C\CCCCCCCCC(=O)O [CLA, trans-10, cis-12 conjugated linoleic acid (CLA) isomer]
- LCT mRNA expression relative to control (qPCR) (LCT mRNA; 1 mM): as efficiently as 1 mM GED
- increase in LCT activity over control levels, compared to 1 mM GED (LCT activity; Caco-2 cells, 1 mM): 2 fold
- CLA-dependent induction of LCT activity in PPARγ knock-down cells [1]: strongly compromised
- CLA-dependent induction of LCT expression in PPARγ knock-down cells [1]: strongly compromised
- LCT activity in duodenal tissue compared to CMC control (LCT): significant increase
- LCT mRNA expression in duodenal tissue relative to CMC control (LCT): significant increase
- LCT mRNA expression in jejunal tissue relative to CMC control (LCT): not
- PPARγ mRNA expression levels in duodenum relative to CMC control (PPARγ mRNA): significant increase
- PPARγ mRNA expression levels in jejunum relative to CMC control (PPARγ mRNA): significant increase

SMILES: O=C(Nc1ccccc1)c1cc([N+](=O)[O-])ccc1Cl [GW9662]
- ability of GED to induce increased LCT mRNA expression in the presence of the antagonist (LCT mRNA; GED plus GW9662): markedly reduced

- glucose uptake of Caco-2 cells (Caco-2 cells): did not significantly alter
SMILES: CCc1ccc(CCOc2ccc(CC3SC(=O)NC3=O)cc2)nc1 (stereo not drawn) [Pioglitazone, pioglitazone]
- Fold Lactase RNA (LCT gene; 1 μM): 17.9 fold
- Fold Lactase RNA (LCT gene; 1 μM, listed as Pio): 17.93 fold
- LCT activity compared to untreated cells (LCT activity; Caco-2 cells, 1 μM, vs DMSO): > 2 fold
